Results published in patent US10111890B2, “9-aminomethyl minocycline compounds and uses thereof” (Paratek Pharmaceuticals, Inc., priority 2016, dated 2018).

Test: Phase 1 multiple oral dose (300, 450, 600 mg once daily x 5 days) crossover study: plasma pharmacokinetics
Conditions: for Day 1 PK Summary, Geom. Mean / Day 1 PK Summary, Mean / Day 5 PK Summary, Geom. Mean / Day 5 PK Summary, Mean: preliminary results; for half-life / Tmax / AUC(0-t) / Cmax: human; for half-life: in vivo; for Tmax / AUC(0-t) / Cmax: plasma; for Cmax: Mean Cmax; for exposure (dose-normalized AUC0-24) as % of that predicted if perfectly dose-proportional: increase in dose from 300 mg to 600 mg
Text: Thus the study was designed as a Phase 1, randomized, double-blind, 3-period, crossover study in healthy adult subjects. The study consisted of a screening period (Day −21 through Day −2), 3 baseline periods (Day −1 of each period), 3 treatment periods (Day 1 through Day 6 of each period), and a study completion visit (within 6 to 10 days after the last dose of study drug in Period 3). There was a washout of at least 5 days between the last dose in one period and the first dose in the next period. Subjects were confined to the study site from Day −1 of Period 1 until discharge on Day 6 of Period 3, after the 24-hour blood sampling, urine sampling, and safety assessments were completed. Subjects returned to the study center 6 to 10 days after the last dose of study drug in Period 3 for the study completion visit.
All doses of study drug were administered in the morning with no food or drink except for water at least 6 hours prior to dosing. Subjects then had no food or drink except water for at least 2 hours after dosing and no dairy products, antacids, or multivitamins for 4 hours after dosing.
The 24-hour blood sample for Day 1 was collected prior to dosing on Day 2 for each period.
Point estimates and 90% CIs for differences on the log scale were exponentiated to obtain estimates for the ratios of geometric means and respective 90% CIs on the original scale. No adjustment was made for multiplicity.
The estimates of slope b were reported along with the corresponding 2-sided 90% CIs.

**Q.** For `CN(C)c1cc(CNCC(C)(C)C)c(O)c2c1C[C@H]1C[C@H]3[C@H](N(C)C)C(O)=C(C(N)=O)C(=O)[C@@]3(O)C(O)=C1C2=O` [Omadacycline, 9-[(2,2-dimethyl-propylamino)-methyl]-minocycline], which “Mean AUC0-24” value (300 mg oral once daily, Day 5) is on record?
**A.** The value was 9.2672 µg·h/mL.

**Q.** And the “Cmax/Dose, Geometric LS Means” value (300 mg, Day 1)?
**A.** Its value is 2.09 ng/mL/mg.

**Q.** And the “Cmax/Dose, Geometric LS Means” value (300 mg, Day 5)?
**A.** Its value is 2.62 ng/mL/mg.

**Q.** What about the “Cmax/Dose, Geometric LS Means” value (450 mg, Day 1) of the same molecule?
**A.** Its value is 1.81 ng/mL/mg.

**Q.** And the “Cmax/Dose, Geometric LS Means” value (450 mg, Day 5)?
**A.** The value was 2.32 ng/mL/mg.

**Q.** What about the “Cmax/Dose, Geometric LS Means” value (600 mg, Day 1) of the same molecule?
**A.** Its value is 1.54 ng/mL/mg.

**Q.** And the “Cmax/Dose, Geometric LS Means” value (600 mg, Day 5)?
**A.** The value was 2.11 ng/mL/mg.

**Q.** What about the “Day 1 PK Summary, Geom. Mean” value (300 (dose), Day 1) of the same molecule?
**A.** The value was 6,293.65.

**Q.** What about the “Day 1 PK Summary, Mean” value (300 (dose), Day 1) of the same molecule?
**A.** The value was 6,560.73.

**Q.** And the “Day 5 PK Summary, Geom. Mean” value (300 (dose), Day 5)?
**A.** The value was 8,990.55.

**Q.** What about the “Day 5 PK Summary, Mean” value (300 (dose), Day 5) of the same molecule?
**A.** The value was 9,351.02.

**Q.** What about the “Day 1 PK Summary, Geom. Mean” value (450 (dose), Day 1) of the same molecule?
**A.** The value was 8,382.03.

**Q.** What about the “Day 1 PK Summary, Mean” value (450 (dose), Day 1) of the same molecule?
**A.** The value was 8,959.13.

**Q.** What about the “Day 5 PK Summary, Geom. Mean” value (450 (dose), Day 5) of the same molecule?
**A.** Its value is 12,883.95.

**Q.** What about the “Day 5 PK Summary, Mean” value (450 (dose), Day 5) of the same molecule?
**A.** The value was 13,363.54.

**Q.** And the “Day 1 PK Summary, Geom. Mean” value (600 (dose), Day 1)?
**A.** Its value is 9,644.67.

**Q.** What about the “Day 1 PK Summary, Mean” value (600 (dose), Day 1) of the same molecule?
**A.** The value was 9,990.20.

**Q.** What about the “Day 5 PK Summary, Geom. Mean” value (600 (dose), Day 5) of the same molecule?
**A.** Its value is 15,431.37.

**Q.** And the “Day 5 PK Summary, Mean” value (600 (dose), Day 5)?
**A.** Its value is 16,171.61.

**Q.** And the “systemic exposure on Day 5 higher than on Day 1” value (all tested dose levels)?
**A.** The value was ~50%.

**Q.** What about the half-life (mean half-life in plasma (T1/2), across the 3 tested dose levels, Day 1) of the same molecule?
**A.** Its half-life is ~13 h.

**Q.** What about the half-life (mean half-life in plasma (T1/2), across the 3 tested dose levels, Day 5) of the same molecule?
**A.** Its half-life is ~16 h.

**Q.** And the half-life (po, 300 mg, Mean T1/2, 300 mg oral once daily, Day 1)?
**A.** Its half-life is 13.7 h.

**Q.** And the half-life (po, 300 mg, Mean T1/2, 300 mg oral once daily, Day 5)?
**A.** Its half-life is 15.5 h.

**Q.** What about the half-life (po, 450 mg, Mean T1/2, 450 mg oral once daily, Day 1) of the same molecule?
**A.** Its half-life is 13.4 h.

**Q.** What about the half-life (po, 450 mg, Mean T1/2, 450 mg oral once daily, Day 5) of the same molecule?
**A.** Its half-life is 16.8 h.

**Q.** What about the half-life (po, 600 mg, Mean T1/2, 600 mg oral once daily, Day 1) of the same molecule?
**A.** Its half-life is 13 h.

**Q.** And the half-life (po, 600 mg, Mean T1/2, 600 mg oral once daily, Day 5)?
**A.** Its half-life is 16.8 h.

**Q.** And the Tmax (oral, 600 mg, time at which mean plasma concentrations peaked (Tmax), all tested dose levels (300, 450, 600 mg), Day 1 and Day 5)?
**A.** The Tmax was 2.5 h.

**Q.** What about the AUC(0-t) (po, 300 mg, Mean AUC0-24, 300 mg oral once daily, Day 1) of the same molecule?
**A.** Its AUC(0-t) is 6.64 µg·h/mL.

**Q.** And the AUC(0-t) (po, 300 mg, Mean AUC0-24, 300 mg oral once daily, Day 5)?
**A.** Its AUC(0-t) is 9.27 µg·h/mL.

**Q.** And the Cmax (po, 300 mg, 300 mg oral once daily, Day 1)?
**A.** The Cmax was 0.649 µg/mL.

**Q.** What about the Cmax (po, 300 mg, 300 mg oral once daily, Day 5) of the same molecule?
**A.** The Cmax was 0.809 µg/mL.

**Q.** And the Tmax (po, 300 mg, Mean Tmax, 300 mg oral once daily, Day 1)?
**A.** Its Tmax is 2.5 h.

**Q.** What about the Tmax (po, 300 mg, Mean Tmax, 300 mg oral once daily, Day 5) of the same molecule?
**A.** Its Tmax is 2.5 h.

**Q.** What about the AUC(0-t) (po, 450 mg, Mean AUC0-24, 450 mg oral once daily, Day 1) of the same molecule?
**A.** The AUC(0-t) was 8.98 µg·h/mL.

**Q.** What about the AUC(0-t) (po, 450 mg, Mean AUC0-24, 450 mg oral once daily, Day 5) of the same molecule?
**A.** Its AUC(0-t) is 13.4 µg·h/mL.

**Q.** What about the Cmax (po, 450 mg, 450 mg oral once daily, Day 1) of the same molecule?
**A.** Its Cmax is 0.874 µg/mL.

**Q.** And the Cmax (po, 450 mg, 450 mg oral once daily, Day 5)?
**A.** The Cmax was 1.08 µg/mL.

**Q.** And the Tmax (po, 450 mg, Mean Tmax, 450 mg oral once daily, Day 1)?
**A.** Its Tmax is 2.5 h.

**Q.** What about the Tmax (po, 450 mg, Mean Tmax, 450 mg oral once daily, Day 5) of the same molecule?
**A.** The Tmax was 2.5 h.

**Q.** And the AUC(0-t) (po, 600 mg, Mean AUC0-24, 600 mg oral once daily, Day 1)?
**A.** The AUC(0-t) was 10 µg·h/mL.

**Q.** What about the AUC(0-t) (po, 600 mg, Mean AUC0-24, 600 mg oral once daily, Day 5) of the same molecule?
**A.** Its AUC(0-t) is 16.4 µg·h/mL.

**Q.** What about the Cmax (po, 600 mg, 600 mg oral once daily, Day 1) of the same molecule?
**A.** Its Cmax is 0.955 µg/mL.

**Q.** What about the Cmax (po, 600 mg, 600 mg oral once daily, Day 5) of the same molecule?
**A.** Its Cmax is 1.31 µg/mL.

**Q.** What about the Tmax (po, 600 mg, Mean Tmax, 600 mg oral once daily, Day 1) of the same molecule?
**A.** Its Tmax is 2.51 h.

**Q.** And the Tmax (po, 600 mg, Mean Tmax, 600 mg oral once daily, Day 5)?
**A.** The Tmax was 2.5 h.

**Q.** What about the “exposure (dose-normalized AUC0-24) as % of that predicted if perfectly dose-proportional” value (Day 1) of the same molecule?
**A.** The value was 76%.

**Q.** And the “exposure (dose-normalized AUC0-24) as % of that predicted if perfectly dose-proportional” value (Day 5)?
**A.** Its value is 88%.
